Tests used:
[1] = test system: dopaminergic progenitor cells; assay: Influence of BP on differentiation of dopaminergic progenitor cells into dopaminergic neurons (cell morphology, inverted microscope); type: cell-based; conditions: FIG. 3
Experimental: (§1) The dopaminergic progenitor cells provided by [Preparation Example B-2] were cultured in the conditional medium provided by [Preparation Example A-2] at 37° C., 5% CO2 for 24 hours. Then, the cells were divided into six groups (see FIGS. 3 and 4), three groups (see FIGS. 5 and 6) and independently subjected to the following treatments: • (1) Control group: cells were continuously cultured in the conditional medium provided by [Preparation Example A-2] […]
To understand the influence of BP on the differentiation of dopaminergic progenitor cells into dopaminergic neurons, the differentiation process of the cells in control group provided by [Preparation Example C] was continuously taken from a JuLI™Br cell imaging analyzer (purchased from NanoEnTek company) (results are shown in FIG. 2), and the cell morphology in each group provided by [Preparation Example C] was taken from and recorded by an inverted microscope (purchased from Nikon company) when the cells were continuously cultured for six days (results are shown in FIG. 3).

[2] = test system: dopaminergic neurons; assay: Influence of BP on migration of dopaminergic neurons out from neurospheres (Sox-1/TH/DAPI fluorescent staining); type: cell-based; conditions: FIG. 4
Experimental: as §1
To understand the influence of BP on dopaminergic neurons, when the cells in each group provided by [Preparation Example C] were continuously cultured for ten days, the cells were fixed and then subjected to fluorescent staining with the antibodies including Sox-1 (purchased from Santa Cruz company, product number: SC-17318), TH (tyrosine hydroxylase; purchased from Millipore company, product number: MAB152) and DAPI (diamidino-2-phenylindole; purchased from ThermoFisher Scientific company, product number: D1306), respectively (Sox-1 expresses in dopaminergic progenitor cells, TH expresses in dopaminergic neurons, and DAPI is a nuclear-specific dye). Then, the dopaminergic progenitor cells (green fluorescence), dopaminergic neurons (red fluorescence) and nuclei (blue fluorescence) were observed by an upright fluorescent microscope (purchased from Nikon Company).

SMILES: CCCC=C1OC(=O)c2ccccc21 [BP, n-butylidenephthalide]
- influence on the normal neural differentiation of dopaminergic progenitor cells ([1]; BP 5-100 µM, six days): does not influence
- formation of nerve fibers ([1]; BP at 5, 10, 20, 50 and 100 µM in conditional medium (Purmorphamine + FGF-8b), cultured six days): can be observed
- phenomenon of dopaminergic neurons migrating out from the neurospheres, comparison among BP concentrations ([2]; BP 50 µM ("BP (50)" group), ten days): most significant
- phenomenon of dopaminergic neurons migrating out from the neurospheres, compared to control group ([2]; BP at 5, 10, 20, 50 and 100 µM in conditional medium, cultured ten days): can be observed
